Read-outs that look alike come from different tables or passages of the source.
Assays:
[1] = test system: Leishmania donovani axenic amastigote parasites; test: Leishmania donovani axenic amastigote proliferation assay (Cell TiterGlo luminescence, 2 day incubation); type: cell-based; details: Leishmania donovani, read-out: L. donovani amastigotes EC50
[2] = test system: L. donovani HU3 strain in mouse peritoneal macrophages; test: Assay for proliferation of Leishmania parasites in infected mouse peritoneal macrophages (SybrGreen staining, high-content imaging, 5 days); type: cell-based, Leishmania donovani; details: Leishmania donovani, Peritoneal macrophage, L. donovani in mouse peritoneal macrophages, read-out: L. donovani Macrophage EC50
[3] = test system: Trypanosoma brucei Lister 427 strain, bloodstream form; test: Assay for proliferation of kinetoplastid parasite Trypanosoma brucei (Cell Titer Glo, 48 hours); type: cell-based; details: Trypanosoma brucei, T. brucei Lister 427 bloodstream form, read-out: T. brucei EC50
Text: Assay for Proliferation of Kinetoplastid Parasite Trypanosoma brucei.
The proliferation is quantified by the addition of Cell Titer Glo (Promega®) a luminescent cell viability assay that measures the number of viable cells in culture based on the quantification of cellular ATP amount, which is an indicator of metabolically active cells.
The following assay illustrates the invention without in any way limiting the scope of the invention. This parasite proliferation assay measures the increase in parasite growth using an assay that measures ATP activity, Cell Titer Glo®.
Trypanosoma brucei Lister 427 strain is grown in HMI-9 Trypanosome media for T. brucei bloodstream form. 30 μl of HMI-9 media is dispensed into 384 well assay plates. 200 nl of compounds of the invention (in DMSO), including anti-trypanosome controls (Pentamidine and suramin), are then transferred into the assay plates, as well as DMSO alone to serve as a negative control for inhibition. Then 25 μl of a suspension of T. brucei culture in HMI-9 media is dispensed into the assay plates. The final concentration of parasites in culture corresponds to 1.7% of 0.5 uM ATP activity with Cell Titer Glo® in HMI-9 media. The plates are placed in a 37° C. incubator for 48 hours in an atmospheric environment containing 5% CO2. 40 μl of Cell Titer Glo® is dispensed into the plates. The plates are then read for luminescence. The percentage inhibition of 50%, EC50, is calculated for each compound.

[4] = test system: Trypanosoma cruzi amastigotes (Tulahuen strain expressing Lac-Z) cultured in 3T3 fibroblast cells; test: microbe, parasite or virus in culture; type: cell-based; details: Trypanosoma cruzi, TULAHUEN, Fibroblast, T. cruzi amastigotes in 3T3 fibroblast cells, read-out: T cruzi EC50
[5] = axenic amastigotes, inhibition of proliferation

EC50 ([1]; L. donovani axenic amastigotes) [nM] | EC50 [3] [nM] | EC50 [2] [nM] | SMILES | EC50 [1, 5] [nM] | EC50 ([2]; inhibition of proliferation) [nM] | EC50 ([3]; inhibition of proliferation) [nM] | EC50 ([4]; inhibition of proliferation) [nM] | EC50 [4] [nM]
– | – | – | CC1(C(=O)Nc2cnc3nc(-c4cc(NC(=O)N5CCCC5)ccc4F)cn3c2)CCCO1 (centres unmarked) [Compound 127] | 561 | 2120 | 74 | 1980 | –
– | – | – | CC(C)OC(=O)Nc1cnc2nc(-c3cc(NC(=O)N4CC(F)(F)C(F)(F)C4)ccc3Cl)cn2c1 [Compound 266] | 1260 | 3370 | 1450 | 1160 | –
– | – | – | CC(C)(C)OC(=O)N1CCC(Oc2ccc(-c3cnc4nc(-c5cc(NC(=O)N6CCCC6)ccc5Cl)cn4c3)cc2)CC1 [Compound 345] | 251 | 955 | 527 | 408 | –
– | – | – | O=C(Nc1ccc(F)c(-c2cn3cc(C4=CCCC4)cnc3n2)c1)N1CCCC1 [Compound 354] | 26 | 103 | 4 | 8 | –
– | – | – | O=C(Nc1cnc2nc(-c3cc(NC(=O)N4CCCC4)ccc3F)cn2c1)C1COCCO1 (centres unmarked) [Compound 143] | 478 | 1400 | 159 | 7910 | –
958 | 426 | 1580 | O=C(Nc1cnc2nc(-c3ccc(F)c(NC(=O)N4CCCC4)c3)cn2c1)OCc1ccccc1 [Compound 513, Benzyl (2-(4-fluoro-3-(pyrrolidine-1-carboxamido)phenyl)imidazo[1,2-a]pyrimidin-6-yl)carbamate] | – | – | – | – | –
– | – | – | CC(C)OC(=O)Nc1cnc2nc(-c3cc(NC(=O)c4cncn4C)ccc3F)cn2c1 [Compound 96] | > 15800 | 42200 | 1480 | – | –
– | – | – | Cc1ccc(C(=O)Nc2ccc(Cl)c(-c3cn4cc(-c5ccccc5)cnc4n3)c2)o1 [Compound 31, N-(4-chloro-3-(6-phenylimidazo[1,2-a]pyrimidin-2-yl)phenyl)-5-methylfuran-2-carboxamide] | 169 | 243 | 67.7 | – | –
63 | 55 | 181 | Cc1cccnc1-c1cnc2nc(-c3cc(NC(=O)N4CC(F)(F)C4)ccc3F)cn2c1 [Compound 403] | – | – | – | – | –
– | – | – | CCN(C)C(=O)Nc1cccc(-c2cn3cc(NC(=O)OC(C)C)cnc3n2)c1 [Compound 6] | 22300 | 9200 | 664 | – | –
13900 | 17800 | > 50000 | CC(C)(C)OC(=O)Nc1cnc2nc(-c3cc(NC=O)ccc3F)cn2c1 [Compound 532, tert-butyl (2-(2-fluoro-5-formamidophenyl)imidazo[1,2-a]pyrimidin-6-yl)carbamate] | – | – | – | – | –
– | – | – | CCOC(=O)Nc1ccc(Cl)c(-c2cn3cc(-c4ccc(NC)cc4)cnc3n2)c1 [Compound 37] | 610 | 3010 | 197 | – | –
552 | 59 | 4000 | CN(CC(F)(F)F)C(=O)Nc1ccc(F)c(-c2cn3cc(Br)cnc3n2)c1 [Compound 586, 3-(3-(6-bromoimidazo[1,2-a]pyrimidin-2-yl)-4-fluorophenyl)-1-methyl-1-(2,2,2-trifluoroethyl)urea] | – | – | – | – | –
– | – | – | O=C(Nc1ccc(Cl)c(-c2cn3cc(-c4ccsc4)cnc3n2)c1)N1CCCC1 [Compound 28] | 28 | 129 | 9.36 | – | –
– | – | – | COCCOC(=O)Nc1ccc(Cl)c(-c2cn3cc(-c4ccccc4)cnc3n2)c1 [Compound 35] | 730 | 870 | 1120 | – | –
145 | 53 | 428 | CC(C)Nc1cnc2nc(-c3cc(NC(=O)N4CC(F)C4)ccc3F)cn2c1 [Compound 592] | – | – | – | – | –
4590 | 1430 | > 50000 | COC(=O)Nc1ccc(F)c(-c2cn3cc(Br)cnc3n2)c1 [Compound 517] | – | – | – | – | –
– | – | – | CC(C)OC(=O)Nc1cnc2nc(-c3cc(NC(=O)N4CC(C#N)C4)ccc3F)cn2c1 [Compound 290] | 3140 | > 45700 | 12600 | – | –
– | – | – | CNc1ccc(-c2cnc3nc(-c4cc(NC(=O)c5ccc(C)o5)ccc4Cl)cn3c2)cc1 [Compound 33, N-(4-chloro-3-(6-(4-(methylamino)phenyl)imidazo[1,2-a]pyrimidin-2-yl)phenyl)-5-methylfuran-2-carboxamide] | 370 | 660 | 188 | – | –
– | – | – | O=C(Nc1ccc(Cl)c(-c2cn3cc(Cl)cnc3n2)c1)c1ccco1 [Compound 38] | 5900 | 15600 | 1800 | – | –
– | – | – | COC(=O)Nc1ccc(-c2cnc3nc(-c4cc(NC(=O)N5CCCC5)ccc4Cl)cn3c2)cc1 [Compound 24, methyl (4-(2-(2-chloro-5-(pyrrolidine-1-carboxamido)phenyl)imidazo[1,2-a]pyrimidin-6-yl)phenyl)carbamate] | 19.9 | 57 | 8.45 | – | –
– | – | – | O=C(Nc1ccc(Cl)c(-c2cn3cc(-c4ccc(F)cc4)cnc3n2)c1)N1CCCC1 [Compound 25] | 54 | 100 | 27.5 | – | –
– | – | – | CC(C)OC(=O)Nc1cnc2nc(-c3cccc(NC(=O)c4ccc(Cl)o4)c3)cn2c1 [Compound 18] | 410 | 172 | 56.8 | – | –
> 25000 | > 50000 | 2270 | CC(C)c1cnc2nc(-c3cc(N)ccc3F)cn2c1 [Compound 584, 4-fluoro-3-(6-isopropylimidazo[1,2-a]pyrimidin-2-yl)aniline] | – | – | – | – | –
– | – | – | Cc1nc(C)c(C(=O)Nc2cccc(-c3cn4cc(NC(=O)OC(C)C)cnc4n3)c2)o1 [Compound 22] | 1240 | 530 | 384 | – | –
– | – | – | COCCOC(=O)Nc1ccc(Cl)c(-c2cn3cc(-c4ccc(NC(=O)OC)cc4)cnc3n2)c1 [Compound 32, 2-methoxyethyl N-[4-chloro-3-(6-{4-[(methoxycarbonyl)amino]phenyl}imidazo[1,2-a]pyrimidin-2-yl)phenyl]carbamate] | 118 | 330 | 186 | – | –
– | – | – | Cc1nc(C)c(C(=O)Nc2ccc(F)c(-c3cn4cc(-c5sc(C)nc5C)cnc4n3)c2)o1 [Compound 365] | 102 | 200 | 59 | – | –
22 | 17 | 65 | Cc1cccnc1-c1cnc2nc(-c3cc(NC(=O)N4CC[C@@H](F)C4)ccc3F)cn2c1 [Compound 410] | – | – | – | – | –

SMILES | EC50 ([1]; L. donovani axenic amastigotes) [nM] | EC50 [3] [nM] | EC50 [2] [nM] | EC50 [1, 5] [nM] | EC50 ([2]; inhibition of proliferation) [nM] | EC50 ([3]; inhibition of proliferation) [nM] | EC50 ([4]; inhibition of proliferation) [nM] | EC50 [4] [nM]
COCCN1CCC(c2cnc3nc(-c4cc(NC(=O)c5oc(C)nc5C)ccc4F)cn3c2)CC1 [Compound 540] | > 25000 | 868 | – | – | – | – | – | 1330
Cc1nc(C)c(C(=O)Nc2ccc(F)c(-c3cn4cc(C5CCN(CCO)CC5)cnc4n3)c2)o1 [Compound 541] | > 25000 | 9920 | – | – | – | – | – | > 20000
Cc1nc(C)c(C(=O)Nc2ccc(F)c(-c3cn4cc(C5CCN(C(=O)CO)CC5)cnc4n3)c2)o1 [Compound 542, N-(4-fluoro-3-(6-(1-(2-hydroxyacetyl)piperidin-4-yl)imidazo[1,2-a]pyrimidin-2-yl)phenyl)-2,4-dimethyloxazole-5-carboxamide] | 450 | 467 | – | – | – | – | – | 8060
Cc1nc(C)c(C(=O)Nc2ccc(F)c(-c3cn4cc(CC(F)(F)F)cnc4n3)c2)o1 [Compound 575, N-(4-fluoro-3-(6-(2,2,2-trifluoroethyl)imidazo[1,2-a]pyrimidin-2-yl)phenyl)-2,4-dimethyloxazole-5-carboxamide] | 78 | 22 | – | – | – | – | – | 52

— US20160045505A1, “COMPOUNDS AND COMPOSITIONS FOR THE TREATMENT OF PARASITIC DISEASES” (NOVARTIS AG, priority 2013, published 2016)
